According to patent US7186722B2, “2-heteroaryl-3,4-dihydro-2h-pyrrole derivatives and the use thereof as pesticides” (Bayer Cropscience AG, priority 2001, dated 2007):

Assays:
Format in all cases: in vivo
[1] = tested on: caterpillars of the diamond back moth (Plutella xylostella); assay: Plutella Test; conditions: 8 ppm, cabbage leaves dipped
Method: (§1) • Solvent: 30 parts by weight of dimethylformamide • Emulsifier: 1 part by weight of alkylaryl polyglycol ether
(§2) To produce a suitable preparation of active compound, 1 part by weight of active compound is mixed with the stated amounts of solvent and emulsifier, and the concentrate is diluted with emulsifier-containing water to the desired concentration.
Cabbage leaves (Brassica oleracea) are treated by being dipped into the preparation of active compound of the desired concentration and are populated with caterpillars of the diamond back moth (Plutella xylostella) while the leaves are still moist.
After the desired period of time, the kill in % is determined. 100% means that all caterpillars have been killed; 0% means that none of the caterpillars have been killed.

[2] = tested on: greenhouse red spider mite (Tetranychus urticae); assay: Tetranychus Test (OP-resistent/dip treatment); conditions: 500 ppm, bean plants dipped, OP-resistent
Method: Tetranychus Test (OP-Resistent/Dip Treatment)
as §1, §2
Bean plants (Phaseolus vulgaris) which are heavily infested by all stages of the greenhouse red spider mite (Tetranychus urticae) are dipped into a preparation of active compound of the desired concentration.
After the desired period of time, the effect in % is determined. 100% means that all spider mites have been killed; 0% means that none of the spider mites have been killed.

[3] = tested on: peach aphid (Myzus persicae); assay: Myzus Test; conditions: 1000 ppm, cabbage leaves dipped
Method: • Solvent: 7 parts by weight of dimethylformamide • Emulsifier: 1 part by weight of alkylaryl polyglycol ether
as §2
Cabbage leaves (Brassica oleracea) which are heavily infested by the peach aphid (Myzus persicae) are treated by being dipped into the preparation of active compound of the desired concentration.
After the desired period of time, the kill in % is determined. 100% means that all aphids have been killed; 0% means that none of the aphids have been killed.

Meloidogyne incognita = assay: Meloidogyne Test; conditions: 20 ppm, nematicidal action by formation of galls on lettuce roots
Method: as §1
To produce a suitable preparation of active compound, 1 part by weight of active compound is mixed with the stated amount of solvent and emulsifier, and the concentrated is diluted with water to the desired concentration.
Vessels are filled with sand, solution of active compound, Meloidogyne incognita egg/larvae suspension and lettuce seeds. The lettuce seeds germinate and the plants develop. On the roots galls are formed.
After the desired period of time, the nematicidal action is determined in % by the formation of galls. 100% means that no galls have been found; 0% means that the number of galls on the treated plants corresponds to that of the untreated control.

SMILES: Fc1cccc(F)c1C1=NC(c2ccc(-c3ccc(OC(F)(F)F)cc3)s2)CC1 (stereo not shown) [drawing 90]
- Kill rate in % after 6 d [1]: 90%

SMILES: Fc1cccc(F)c1C1=NC(c2cc3sc(-c4ccc(OC(F)(F)F)cc4)cc3s2)CC1 (stereo not shown) [drawing 97]
- Kill rate in % after 7 d [2]: 80%

SMILES: Fc1cccc(F)c1C1=NC(c2cc3ccccc3s2)CC1 (stereo not shown) [drawing 86]
- Kill rate in % after 6 d [3]: 95%

SMILES: Fc1cccc(F)c1C1=NC(c2ccc(-c3cccc(OC(F)(F)F)c3)s2)CC1 (stereo not shown) [drawing 85]
- Kill rate in % after 14 d (Meloidogyne incognita): 98%
